These results are taken from patent publication US10173988B2, “N2-(3,4-dimethylphenyl)-6-((4-(p-tolyl)piperazin-1-yl)methyl)-1,3,5-triazine-2,4-diamine” (GLUCOX BIOTECH AB, priority 2015, dated 2019).

SMILES strings stand for the structures.

The target in one data set is human Nox1 (Homo sapiens (Human), UniProt Q9Y5S8). As to the kind of experiment: Nox1 whole cell luminescence assay (luminol, PMA-stimulated). Format: cell-based. Particulars: CHO cells stably expressing human Nox1. The protocol:
CHO cells modified to stably express human Nox1 were grown in DMEM/F12 gibco 31331 containing 10% FBS and 1% pen/strep at 37° C. in air with 5% CO2. Cells were collected from cultures by Trypsin mediated detachment of adherent cells.
A luminescence assay was used that measures the production of reactive oxygen species in whole cells. Luminol reacts with superoxide and emits light and light is measured with luminometer (Synergy/2 microplate reader, BioTek).
Inhibitors were diluted in a compound plate in DMSO (100%) then transferred to Hanks buffer solution and in assay plate DMSO were 2% in all the wells.
Assay procedure, final well volume 100 μl, 96-well plate: Inhibitors (20 μl) were added, then cell suspension was (100 000 cells/well), incubate 37° C. for 30 min, add PMA (0.9 μM/well) to Luminol reaction mix (Luminol 0.1 mM/well and HRP 3.2 U/well) then this stimulation mix into wells. The plate were then immediately read (steps 5 min each reading) and for 1 h. Data was calculated for the linear part of the curve and IC50 determined.
Compounds (Nox inhibitors) were diluted at 3× working concentration and titrated from 200 μM to 0.003 μM in 11 steps

Another data set addresses Nox2 (Homo sapiens (Human), UniProt P04839). As to the kind of experiment: Nox2 whole cell assay in isolated neutrophils (isoluminol, PMA-stimulated). Format: cell-based. Particulars: PMA 30 ng/ml. An excerpt:
Cells: Human blood was purchased in buffy coat, prepared the same day for isolation of neutrophils, from Labjoy AB, Lund, Sweden. Blood components were separated by density gradient centrifugation using Ficoll-Paque Plus. Plasma, PBMCs and Ficoll were removed before erythrocytes were removed by dextran sedimentation. Remaining erythrocytes were lyses before neutrophils were washed and counted. Isolated neutrophils were kept on ice resuspended in HBSS without Mg and Ca until assayed.
Buffers: The isoluminol buffer contained Isoluminol (0.175 mg/ml) and HRP fraction II (1.75 U/ml). The buffer was prepared by diluting these ingredients at 4× working concentration in HBSS.
Procedures: Compounds (Nox inhibitors) were diluted at 4× working concentration and titrated from 100 μM to 0.006 μM in 1:4 steps. PMA was diluted in Isoluminol buffer at 4× working concentration for a final concentration of 30 ng/ml. […] 25 μl diluted compound or control/well were added to a white 96-well plate. 25 μl/well of PMA diluted in Isoluminol buffer was added to each well. To non-stimulated control wells only Isoluminol buffer was added. Neutrophils were washed and resuspended at 2×10^6 cells/ml in HBSS with Mg and Ca just before adding 50 μl of the neutrophil cell suspension/well, which was followed by immediate initiation of luminescence measurement. Luminescence was measured using a FluoStar Optima (BMG Labtech). Graphs were performed using Prism 5 for Mac OS X (Prism 5.0 Software, San Diego Calif. USA).

The next data set deals with Nox4 (Homo sapiens (Human), UniProt Q9NPH5). Briefly: Nox4 whole cell assay (Amplex red, hydrogen peroxide). In kind it is cell-based. As to conditions: HEK (CJ Nox4) cells stably expressing Nox4. How it is done: Cells: HEK (CJ Nox4) stably expressing Nox4 was purchased from Redoxis AB (Lund). The adherent cells were cultivated in RPMI 1640 with L-Glutamine were supplemented with FBS (10%), penicillin (10 U/ml) streptomycin (100 μg/ml) and neomycin (200 μg/ml) at 37° C. in air with 5% CO^2.
Hydrogen peroxide produced by Nox4 was measured (fluorescence emission: 590 and excitation: 544) using Amplex red (Molecular Probes) in Fluorescan Ascent plate reader Type 374. Cells were collected from cultures by Trypsin mediated detachment of adherent cells. Cells were seeded in 96-well plates at a density of 50 000 cells in […] assay volume. […] Nox4 activity was measured up to 100 min with readings every minute. […] Y-axes: turnover of hydrogen peroxide; x-axes: concentration of inhibitor. Inhibitors were diluted in a compound plate in DMSO (100%) then transferred to Hanks buffer solution and in assay plate DMSO were 2% in all the wells.
Compounds (Nox inhibitors) were diluted at 3× working concentration and titrated from 200 μM to 0.003 μM in 11 steps.

The nature of data set [1]: Caco-2 permeability assay. As to conditions: human, Caco-2; for efflux ratio at 60 min: Papp (b-a) divided by Papp (a-b); for Papp A→B at 60 min: apical to basolateral; for Papp A→B at 60 min / Papp B→A at 60 min: pH 7.4, 37° C., test concentration 1 to 10 μM; for Papp B→A at 60 min: basolateral to apical. In kind it is in vitro ADME. The protocol: (§1) Caco-2 membrane permeability was performed in accordance with published protocols. [Hubatch] Caco-2 cell monolayers (passage 94-105) were grown on permeable filter support and used for transport study on day 21 after seeding. Prior to the experiment a drug solution of 10 μM was prepared and warmed to 37° C.
(§2) The Caco-2 filters were washed with prewarmed HBSS prior to the experiment, and thereafter experiment was started by applying the donor solution on the apical side or basolateral side, depending on which direction that was monitored. The transport experiments were carried out at pH 7.4 in both the apical and basolateral chambers. The experiments were performed at 37° C. and with a stirring rate of 500 rpm. The receiver compartment was sampled at 15, 30, and 60 min, and at 60 min also a final sample from the donor chamber was taken in order to calculate the mass balance of the compound. Directly after the termination of experiment the filter inserts were washed with prewarmed HBSS and the membrane integrity was checked. This was performed by trans-epithelial electrical resistance (TEER) measurement. The experiment was validated by inclusion of the para-cellular marker 14Cmannitoland monitoring its permeability during the experiments. Mannitol is a para-cellular marker used for cell monolayer integrity measurements.
(§3) Test compounds were thus added to either the apical or basolateral side of the Caco-2 cell layer, to measure permeability in the absorptive (apical to basolateral, Papp (a-b)) or secretive (basolateral to apical Papp (a-b) directions, respectively. The efflux is calculated as Papp (b-a) divided by Papp (a-b). The results are presented in Table 3.

A further data set deals with Caco-2 cell monolayers. As to the kind of experiment: Caco-2 permeability assay. In kind it is in vitro ADME. Particulars: mass balance. The protocol:
as §1, §2, §3
A general note: Caco-2 cells form a polarised layer with tight junctions and transporters.

Nox2, sequence (P04839 2-570): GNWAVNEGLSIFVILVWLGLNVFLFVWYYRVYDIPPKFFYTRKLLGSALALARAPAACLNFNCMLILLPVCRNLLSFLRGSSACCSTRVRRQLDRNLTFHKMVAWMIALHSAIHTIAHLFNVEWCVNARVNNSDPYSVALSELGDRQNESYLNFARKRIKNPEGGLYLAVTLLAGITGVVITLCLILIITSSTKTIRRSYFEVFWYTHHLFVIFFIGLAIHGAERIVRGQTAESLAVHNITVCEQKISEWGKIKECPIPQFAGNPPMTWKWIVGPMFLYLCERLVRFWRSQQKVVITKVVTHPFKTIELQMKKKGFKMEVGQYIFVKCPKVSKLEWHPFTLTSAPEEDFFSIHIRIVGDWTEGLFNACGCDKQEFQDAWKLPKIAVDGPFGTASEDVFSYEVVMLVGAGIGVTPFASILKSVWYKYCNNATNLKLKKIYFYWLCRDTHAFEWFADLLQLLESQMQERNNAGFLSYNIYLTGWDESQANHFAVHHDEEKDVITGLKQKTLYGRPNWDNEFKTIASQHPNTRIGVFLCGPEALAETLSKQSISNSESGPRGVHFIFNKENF
Nox2, sequence (P13498 2-195 partner): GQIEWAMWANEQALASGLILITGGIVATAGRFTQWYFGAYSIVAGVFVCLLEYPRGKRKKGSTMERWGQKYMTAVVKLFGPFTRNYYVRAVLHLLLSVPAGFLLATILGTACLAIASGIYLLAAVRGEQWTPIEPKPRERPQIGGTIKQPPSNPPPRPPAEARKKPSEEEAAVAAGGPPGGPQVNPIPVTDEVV
Nox4, sequence (Q9NPH5 whole entry, species assumed): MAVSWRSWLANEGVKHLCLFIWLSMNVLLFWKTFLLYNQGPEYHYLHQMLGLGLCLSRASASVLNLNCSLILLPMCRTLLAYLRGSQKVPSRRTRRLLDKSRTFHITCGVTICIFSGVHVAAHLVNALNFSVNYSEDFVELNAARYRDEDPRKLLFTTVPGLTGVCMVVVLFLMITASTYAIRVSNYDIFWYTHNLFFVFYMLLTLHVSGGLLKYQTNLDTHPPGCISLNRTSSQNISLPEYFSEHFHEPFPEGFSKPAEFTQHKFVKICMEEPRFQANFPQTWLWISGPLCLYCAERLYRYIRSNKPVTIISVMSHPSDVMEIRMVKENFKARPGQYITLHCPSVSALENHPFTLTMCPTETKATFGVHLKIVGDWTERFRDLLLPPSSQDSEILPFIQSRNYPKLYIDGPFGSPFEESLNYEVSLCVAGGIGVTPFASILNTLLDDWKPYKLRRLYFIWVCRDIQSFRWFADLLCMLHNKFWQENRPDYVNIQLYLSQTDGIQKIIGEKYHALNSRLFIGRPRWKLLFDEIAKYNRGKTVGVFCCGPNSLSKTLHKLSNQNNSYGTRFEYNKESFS
Nox4, sequence (P13498 2-195 partner, species assumed): as the sequence (P13498 2-195 partner) above
human Nox1, sequence (Q9Y5S8 whole entry): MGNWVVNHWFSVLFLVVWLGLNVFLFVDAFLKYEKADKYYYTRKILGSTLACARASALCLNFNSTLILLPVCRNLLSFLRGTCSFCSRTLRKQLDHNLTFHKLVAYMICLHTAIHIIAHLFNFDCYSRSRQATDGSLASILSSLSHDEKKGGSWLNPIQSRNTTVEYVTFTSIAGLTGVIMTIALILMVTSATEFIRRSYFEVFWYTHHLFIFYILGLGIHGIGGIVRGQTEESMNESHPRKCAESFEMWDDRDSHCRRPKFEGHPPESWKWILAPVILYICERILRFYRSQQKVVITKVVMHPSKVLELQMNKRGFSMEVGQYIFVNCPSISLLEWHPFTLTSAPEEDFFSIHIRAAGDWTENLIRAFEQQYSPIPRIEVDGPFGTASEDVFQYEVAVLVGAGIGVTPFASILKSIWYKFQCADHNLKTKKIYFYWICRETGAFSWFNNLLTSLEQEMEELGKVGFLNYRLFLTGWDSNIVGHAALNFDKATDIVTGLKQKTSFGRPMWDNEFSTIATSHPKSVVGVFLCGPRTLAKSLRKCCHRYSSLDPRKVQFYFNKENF
human Nox1, sequence (P13498 2-195 partner): as the sequence (P13498 2-195 partner) above

As a reminder, the IC50 is the midpoint of a concentration-inhibition curve. One may read the efflux ratio as a quotient of directional permeabilities that is used to spot active efflux. The term Papp A→B denotes the apparent permeability from the apical to the basolateral side of a cell layer. A higher Papp A→B goes with ready permeation. Broadly, the Papp B→A is the apparent permeability from the basolateral to the apical side of a cell layer. For the molecule `Cc1cccc(N2CCN(Cc3nc(N)nc(Nc4ccc(C)c(C)c4)n3)CC2)c1` [C, N^2-(3,4-dimethylphenyl)-6-((4-(m-tolyl)piperazin-1-yl)methyl)-1,3,5-triazine-2,4-diamine], the IC50 worked out at 162 µM on human Nox1, 59 µM on Nox2 and 1.68 µM against Nox4. In addition, the efflux ratio at 60 min in data set [1] came to 37. Moreover, the Papp A→B at 60 min in data set [1] was found to be 2.4 ± 0.1 ×10⁻⁶ cm/s. The molecule also gave a Papp B→A at 60 min in data set [1] of 89 ± 27 ×10⁻⁶ cm/s. The MR turned out to be 37% in the data set on Caco-2 cell monolayers (a-b direction) and 67% in the data set on Caco-2 cell monolayers (b-a direction).

With `Cc1ccc(N2CCN(Cc3nc(N)nc(Nc4ccc(C)c(C)c4)n3)CC2)cc1` [inventive, N^2-(3,4-dimethylphenyl)-6-((4-(p-tolyl)piperazin-1-yl)methyl)-1,3,5-triazine-2,4-diamine], at human Nox1, the IC50 was determined as 66 µM. For the same molecule, in data set [1], the Papp A→B at 60 min is 12 ± 1.6 ×10⁻⁶ cm/s and the Papp B→A at 60 min was found to be 43 ± 5.8 ×10⁻⁶ cm/s. Also, in the data set with Caco-2 cell monolayers (a-b direction), the MR is 13%. In the data set with Caco-2 cell monolayers (b-a direction), the MR is 14%.

`Cc1ccc(Nc2nc(N)nc(CN3CCN(c4ccc(Cl)cc4)CC3)n2)cc1C` [D, 6-((4-(4-chlorophenyl)piperazin-1-yl)methyl)-N^2-(3,4-dimethylphenyl)-1,3,5-triazine-2,4-diamine]: the results for the IC50 on human Nox1, on Nox2 and on Nox4 were 200 µM, 15 µM and 1.68 µM, respectively. Moreover, in data set [1], the efflux ratio at 60 min turned out to be 17. In data set [1], this molecule had a Papp A→B at 60 min of 1.9 ± 0.2 ×10⁻⁶ cm/s. Further, the Papp B→A at 60 min in data set [1] came to 33 ± 11 ×10⁻⁶ cm/s. The MR worked out at 40% in the data set with Caco-2 cell monolayers (a-b direction) and 16% with Caco-2 cell monolayers (b-a direction).

As to `COc1cccc(N2CCN(Cc3nc(N)nc(Nc4ccc(C)c(Cl)c4)n3)CC2)c1` [B, N^2-(3-chloro-4-methylphenyl)-6-((4-(3-methoxyphenyl)piperazin-1-yl)methyl)-1,3,5-triazine-2,4-diamine], the IC50 at human Nox1 is 22 µM; at Nox2 it was 17 µM; against Nox4, 0.84 µM. Also, in data set [1], the efflux ratio at 60 min turned out to be 54. In data set [1], this molecule came in with an apparent permeability from apical to basolateral (Papp A→B) at 60 min of 0.8 ± 0.2 ×10⁻⁶ cm/s. Also, the Papp B→A at 60 min in data set [1] is 43 ± 5 ×10⁻⁶ cm/s. For the same molecule, the MR with Caco-2 cell monolayers (a-b direction) and in the data set with Caco-2 cell monolayers (b-a direction) was 41% each time.

Take `COc1cccc(N2CCN(Cc3nc(N)nc(Nc4ccc(C)c(C)c4)n3)CC2)c1` [A, N^2-(3,4-dimethylphenyl)-6-((4-(3-methoxyphenyl)piperazin-1-yl)methyl)-1,3,5-triazine-2,4-diamine]: the values for the IC50 on human Nox1, on Nox2 and against Nox4 were 66 µM, 1.68 µM and 1.68 µM, respectively. Also, the efflux ratio at 60 min in data set [1] turned out to be 1. In data set [1], the Papp A→B at 60 min is 35 ± 4 ×10⁻⁶ cm/s. The same molecule showed a Papp B→A at 60 min in data set [1] of 34 ± 4 ×10⁻⁶ cm/s. The MR turned out to be 17% in the data set on Caco-2 cell monolayers (a-b direction) and 12% in the data set with Caco-2 cell monolayers (b-a direction).
